Literature values, collected in paper PMC5742115, “Pharmacophore Modeling and in Silico/in Vitro Screening for Human Cytochrome P450 11B1 and Cytochrome P450 11B2 Inhibitors” (Frontiers in Chemistry, 2017).
Read-outs that look alike come from different tables or passages of the source.

Columns and labels:
[1] = tested on: CYP11B2; details: reported activity, supplementary Table 1, read-out: CYP11B2 IC50, cited from earlier work
[2] = tested on: CYP11B1; details: reported activity, supplementary Table 1, read-out: CYP11B1 IC50, cited from earlier work

SMILES: c1cn(CC23CC4CC(CC(C4)C2)C3)cn1 [CHEMBL1651505]
- IC50 ([1]; ref Hille et al., 2011b): 30 nM
- IC50 ([2]; ref Hille et al., 2011b): 5 nM

SMILES: c1ccc(C(c2ccccc2)(c2ccccc2)n2ccnc2)cc1 [CHEMBL1651507]
- IC50 ([1]; ref Hille et al., 2011b): 11 nM
- IC50 ([2]; ref Hille et al., 2011b): 3 nM

SMILES: c1ccc(C(Cn2ccnc2)(c2ccccc2)c2ccccc2)cc1 [CHEMBL1651508]
- IC50 ([1]; ref Hille et al., 2011b): 8 nM
- IC50 ([2]; ref Hille et al., 2011b): 4 nM

SMILES: c1ccc(C(CCn2ccnc2)(c2ccccc2)c2ccccc2)cc1 [CHEMBL1651509]
- IC50 ([1]; ref Hille et al., 2011b): 290 nM
- IC50 ([2]; ref Hille et al., 2011b): 80 nM

SMILES: c1ccc(-c2ccc(Cn3ccnc3)o2)cc1 [CHEMBL1651513]
- IC50 ([1]; ref Hille et al., 2011b): 372 nM
- IC50 ([2]; ref Hille et al., 2011b): 46 nM

SMILES: c1ccc(-c2ccc(Cn3ccnc3)s2)cc1 [CHEMBL1651514]
- IC50 ([1]; ref Hille et al., 2011b): 353 nM
- IC50 ([2]; ref Hille et al., 2011b): 43 nM

SMILES: O=C1CCc2cc(-c3cccnc3)cc3c2N1CC3 [CHEMBL1765205]
- IC50 ([1]; ref Lucas et al., 2011): 1.1 nM
- IC50 ([2]; ref Lucas et al., 2011): 715 nM

SMILES: O=C1CCc2cc(-c3cccnc3)cc3c2N1CCC3 [CHEMBL1765206]
- IC50 ([1]; ref Lucas et al., 2011): 2.4 nM
- IC50 ([2]; ref Lucas et al., 2011): 2300 nM

SMILES: COc1cncc(-c2cc3c4c(c2)CCN4C(=O)CC3)c1 [CHEMBL1765207]
- IC50 ([1]; ref Lucas et al., 2011): 0.6 nM
- IC50 ([2]; ref Lucas et al., 2011): 247 nM

SMILES: COc1cncc(-c2cc3c4c(c2)CCC(=O)N4CCC3)c1 [CHEMBL1765208]
- IC50 ([1]; ref Lucas et al., 2011): 0.9 nM
- IC50 ([2]; ref Lucas et al., 2011): 545 nM

SMILES: CCOc1cncc(-c2cc3c4c(c2)CCN4C(=O)CC3)c1 [CHEMBL1765209]
- IC50 ([1]; ref Lucas et al., 2011): 1 nM
- IC50 ([2]; ref Lucas et al., 2011): 158 nM

SMILES: CC(C)Oc1cncc(-c2cc3c4c(c2)CCN4C(=O)CC3)c1 [CHEMBL1765210]
- IC50 ([1]; ref Lucas et al., 2011): 2.2 nM
- IC50 ([2]; ref Lucas et al., 2011): 103 nM

SMILES: O=C1CCc2cc(-c3cncc(O)c3)cc3c2N1CC3 [CHEMBL1765211]
- IC50 ([1]; ref Lucas et al., 2011): 4.3 nM
- IC50 ([2]; ref Lucas et al., 2011): 2040 nM

SMILES: O=C1CCc2cc(-c3cncc(F)c3)cc3c2N1CC3 [CHEMBL1765212]
- IC50 ([1]; ref Lucas et al., 2011): 4.4 nM
- IC50 ([2]; ref Lucas et al., 2011): 1290 nM

SMILES: O=C1CCc2cc(-c3cncc(C(F)(F)F)c3)cc3c2N1CC3 [CHEMBL1765213]
- IC50 ([1]; ref Lucas et al., 2011): 5.9 nM
- IC50 ([2]; ref Lucas et al., 2011): 141 nM

SMILES: O=C1CCc2cc(-c3cncc4ccccc34)cc3c2N1CC3 [CHEMBL1765214]
- IC50 ([1]; ref Lucas et al., 2011): 0.2 nM
- IC50 ([2]; ref Lucas et al., 2011): 13 nM

SMILES: O=C1CCc2cc(-c3cncc4ccccc34)cc3c2N1CCC3 [CHEMBL1765215]
- IC50 ([1]; ref Lucas et al., 2011): 0.2 nM
- IC50 ([2]; ref Lucas et al., 2011): 34 nM

SMILES: O=C1CCc2cc(-c3cncnc3)cc3c2N1CC3 [CHEMBL1765217]
- IC50 ([1]; ref Lucas et al., 2011): 56 nM
- IC50 ([2]; ref Lucas et al., 2011): 28500 nM

SMILES: O=C1CCc2cc(-n3ccnc3)cc3c2N1CC3 [CHEMBL1765218]
- IC50 ([1]; ref Lucas et al., 2011): 89 nM
- IC50 ([2]; ref Lucas et al., 2011): 2080 nM

SMILES: O=C1CCc2cc(-c3cncc(-c4ccccc4)c3)cc3c2N1CC3 [CHEMBL1765219]
- IC50 ([1]; ref Lucas et al., 2011): 1.3 nM
- IC50 ([2]; ref Lucas et al., 2011): 58 nM

SMILES: O=C1CCc2cc(-c3cncc(-c4ccccc4F)c3)cc3c2N1CC3 [CHEMBL1765220]
- IC50 ([1]; ref Lucas et al., 2011): 0.7 nM
- IC50 ([2]; ref Lucas et al., 2011): 43 nM

SMILES: O=C1CCc2cc(-c3cncc(-c4cccc(F)c4)c3)cc3c2N1CC3 [CHEMBL1765221]
- IC50 ([1]; ref Lucas et al., 2011): 1.4 nM
- IC50 ([2]; ref Lucas et al., 2011): 490 nM

SMILES: O=C1CCc2cc(-c3cncc(-c4ccc(F)cc4)c3)cc3c2N1CC3 [CHEMBL1765222]
- IC50 ([1]; ref Lucas et al., 2011): 0.9 nM
- IC50 ([2]; ref Lucas et al., 2011): 40 nM

SMILES: O=C1CCc2cc(-c3cncc(-c4cc(F)ccc4F)c3)cc3c2N1CC3 [CHEMBL1765223]
- IC50 ([1]; ref Lucas et al., 2011): 3.6 nM
- IC50 ([2]; ref Lucas et al., 2011): 183 nM

SMILES: O=C1CCc2cc(-c3cncc(-c4ccc(F)c(F)c4)c3)cc3c2N1CC3 [CHEMBL1765224]
- IC50 ([1]; ref Lucas et al., 2011): 2.3 nM
- IC50 ([2]; ref Lucas et al., 2011): 496 nM

SMILES: O=C1CCc2cc(-c3cncc(-c4cc(F)cc(F)c4)c3)cc3c2N1CC3 [CHEMBL1765225]
- IC50 ([1]; ref Lucas et al., 2011): 18 nM
- IC50 ([2]; ref Lucas et al., 2011): 1750 nM

SMILES: COc1ccccc1-c1cncc(-c2cc3c4c(c2)CCN4C(=O)CC3)c1 [CHEMBL1765226]
- IC50 ([1]; ref Lucas et al., 2011): 2.4 nM
- IC50 ([2]; ref Lucas et al., 2011): 128 nM

SMILES: COc1cccc(-c2cncc(-c3cc4c5c(c3)CCN5C(=O)CC4)c2)c1 [CHEMBL1765227]
- IC50 ([1]; ref Lucas et al., 2011): 4.6 nM
- IC50 ([2]; ref Lucas et al., 2011): 1370 nM

SMILES: COc1ccc(-c2cncc(-c3cc4c5c(c3)CCN5C(=O)CC4)c2)cc1 [CHEMBL1765228]
- IC50 ([1]; ref Lucas et al., 2011): 1.4 nM
- IC50 ([2]; ref Lucas et al., 2011): 21 nM

SMILES: O=C1CCc2cc(-c3cncc(-c4cccc(O)c4)c3)cc3c2N1CC3 [CHEMBL1765229]
- IC50 ([1]; ref Lucas et al., 2011): 1.2 nM
- IC50 ([2]; ref Lucas et al., 2011): 44 nM

SMILES: O=C1CCc2cc(-c3cncc(-c4cccc(OC(F)(F)F)c4)c3)cc3c2N1CC3 [CHEMBL1765230]
- IC50 ([1]; ref Lucas et al., 2011): 16 nM
- IC50 ([2]; ref Lucas et al., 2011): 2060 nM

SMILES: O=C1CCc2cc(-c3cncc(-c4cccc(C(F)(F)F)c4)c3)cc3c2N1CC3 [CHEMBL1765231]
- IC50 ([1]; ref Lucas et al., 2011): 33 nM
- IC50 ([2]; ref Lucas et al., 2011): 4650 nM

SMILES: S=C1CCc2cc(-c3cccnc3)cc3c2N1CC3 [CHEMBL1765232]
- IC50 ([1]; ref Lucas et al., 2011): 1.2 nM
- IC50 ([2]; ref Lucas et al., 2011): 333 nM

SMILES: Brc1ncccc1Cn1ccnc1 [CHEMBL2011242]
- IC50 ([1]; ref Hille et al., 2011a): 911 nM
- IC50 ([2]; ref Hille et al., 2011a): 61 nM
